Measured values taken from publication PMC13327620, “A Deep‐Red‐Absorbing Osmium(II) Complex as a Photosensitizer for Photodynamic Therapy Inducing Immunogenic Cell Death” (Angewandte Chemie (International Ed. in English), 2026).

Experiments:
CT26‐luc cells = assay: In vivo vaccination and rechallenge, CT26-luc model; design: species or system BALB/c mice
Description: The ability to stimulate ICD in vivo was evaluated using a CT26‐luc vaccination and rechallenge model, following the gold‐standard method (Figure 5A). The mice were randomly assigned to groups and injected subcutaneously on the left flank with PBS solution, CT26‐luc cells pre‐treated with either 600 µM Cisplatin in the dark, 6.5 µM Ce6, or 1.8 µM Os2 upon 740 nm LED light irradiation (60 min, 12.6 J cm^−2). After 7 days, all the mice were rechallenged by subcutaneous injection of untreated live CT26‐luc cells on the right flank. […] However, by day 15, tumors in the PBS‐treated (control) group grew rapidly, reaching an average tumor volume of 717 ± 190 mm^3.
The BALB/c female mice were randomly divided into 4 groups with each group containing 5 mice, which were named as Control group, Cisplatin group, Ce6 group and Os2 group. CT26-luc cells wer e treat ed in vitro with 600 µM Cisplatin in the dark, 6.5 µM Ce6 or 1.8 µM Os2 upon 740 nm LED light irradiation (60 min, 12.6 J cm-2) following the methods described above. Subsequently, treated CT26-luc cells (3×10^5 cells in 100 µ L sterile PBS) or 100 µ L sterile PB S were injected subcutaneously into the left flank of each mouse. One week later, mice were r echalleng ed by injection with untreated CT26- luc cells (1×10^6 cells in 100 µL sterile PBS). The mice were monitored by an in vivo imaging system (Biospace Lab, Photon Imager Optima) and the tumor volume was calculated with the following equation: tumor volume = width 2 × length × […]
In vivo vaccination study on MCA205 cells
The C57BL/6 mice were randomly divided into 5 groups with each group containing 10 mice, whi ch w ere nam ed as Control group, Cisplatin group, Oxaliplatin group, Ce6 group and Os2 group. M CA205 cells were treated in vitro with 500 µM Cisplatin o r 1400 µM Oxaliplatin in the dark, 5.5 µM Ce6 or 3 µM Os2 upon 740 nm LED light irradiation (60 min, 12.6 J cm-2) following the methods described above. […] The tumor volume was calculated with the following equation: tumor volume =

[1] = test system: immune cells in the spleens; assay: Flow cytometry analysis of immune cells in spleens after vaccination; type: in vivo, BALB/c mice; details: spleen, 7 days after vaccination
Text: Encouraged by the excellent performance of Os2 in inducing ICD both in vitro and in vivo, we decided to further evaluate the antitumor immune response following vaccination. A key feature of ICD is its ability to initiate antigen‐specific adaptive immune responses. To assess this, we measured the immune cell response in the spleens and the cytokine levels in the serum of mice 7 days after vaccination (Figures 6A and S28).
The BALB/c female mice were randomly divided into 4 groups which were named as Control group, Cisplatin group, Ce6 group and Os2 group. CT26-luc cells were tre ated in vitro with 600 µM Cisplatin in the dark, 6.5 µ M Ce6 or 1.8 µM Os2 upon 740 nm LED light irradiation (60 min, 12.6 J cm-2) following the methods described above. […]
The BALB/c female mice were randomly divided into 4 groups with each group containing 3 mice, which were named as Control group, Cisplatin group, Ce6 group and Os2 group. […] For surfac e marker analysis, the cells were stained with fluorescence- l abeled anti-C D45-AF532 (Thermo Fisher Scientific Inc., Catalog no. 58- 0451- 80, clone 30-F 11 ), anti-CD3- […]
Serum samples were obt ained from the mice on day 7 after treatment. Cytokine was detected using ELISA kits according to the manufacturer ’s instructions: IFN-γ (Biolegend, Catalog no. 430807) and IL -17A ( Bi olegend, Catalog no.432507). […]

`C=Cc1c(C)c2cc3nc(c(CC(=O)O)c4[nH]c(cc5nc(cc1[nH]2)C(C)=C5CC)c(C)c4C(=O)O)[C@@H](CCC(=O)O)[C@@H]3C` [Ce6, chlorin e6] was tested, and the “Mice with tumors completely ablated” value (CT26‐luc cells; by day 40, n = 5 per group) was “one mouse”, the “Tumor volume, times smaller than control group” value (CT26‐luc cells; day 15 after rechallenge, vaccination with CT26‐luc cells pre-treated with 6.5 µM Ce6 or 1.8 µM Os2 + 740 nm) was 1.7 and the Survival (CT26‐luc cells; up to 40 days after rechallenge, compared to the other groups) was “prolonged survival periods”. For the same molecule, the “Activated CD8^+ T cells, times that of Control and Cisplatin groups” value [1] was “around twice higher” and the “Cytotoxic CD8^+ T cells, times higher than Control and Cisplatin groups” value [1] was “more than 10”.
